± gives the expanded uncertainty stated by the source.
Experiment: mn = molality of the nth substance listed, in mol/kg
Conditions: 101.3 kPa, Liquid; for viscosity: Capillary tube (Ostwald / Ubbelohde) method; for mass density: Pycnometric method

Cc1ncc(CO)c(CO)c1O.Cl [5-hydroxy-6-methyl-3,4-pyridinedimethanol hydrochloride] + O
Conditions	mass density [kg/m3]	viscosity [mPa·s]
275.15 K, m1 = 0.0101	1000.6 ± 0.28	1.687 ± 0.035
275.15 K, m1 = 0.0204	1001.28 ± 0.28	1.695 ± 0.035
275.15 K, m1 = 0.03	1001.91 ± 0.28	1.703 ± 0.035
275.15 K, m1 = 0.0357	1002.27 ± 0.28	1.706 ± 0.035
275.15 K, m1 = 0.0401	1002.55 ± 0.28	1.708 ± 0.035
275.15 K, m1 = 0.0454	1002.9 ± 0.28	1.712 ± 0.036
275.15 K, m1 = 0.0505	1003.22 ± 0.28	1.719 ± 0.036
275.15 K, m1 = 0.0557	1003.54 ± 0.28	1.722 ± 0.036
275.15 K, m1 = 0.0695	1004.4 ± 0.28	1.725 ± 0.036
275.15 K, m1 = 0.0766	1004.84 ± 0.28	1.73 ± 0.036
275.15 K, m1 = 0.0801	1005.06 ± 0.28	1.735 ± 0.036
275.15 K, m1 = 0.0857	1005.41 ± 0.29	1.737 ± 0.036
275.15 K, m1 = 0.0882	1005.58 ± 0.29	1.739 ± 0.036
275.15 K, m1 = 0.1004	1006.38 ± 0.29	1.75 ± 0.036
277.15 K, m1 = 0.0099	1000.61 ± 0.28	1.576 ± 0.033
277.15 K, m1 = 0.0202	1001.27 ± 0.28	1.58 ± 0.033
277.15 K, m1 = 0.0252	1001.59 ± 0.28	1.584 ± 0.033
277.15 K, m1 = 0.0299	1001.89 ± 0.28	1.588 ± 0.033
277.15 K, m1 = 0.035	1002.22 ± 0.28	1.592 ± 0.033
277.15 K, m1 = 0.04	1002.54 ± 0.28	1.597 ± 0.033
277.15 K, m1 = 0.0497	1003.15 ± 0.28	1.603 ± 0.033
277.15 K, m1 = 0.0598	1003.79 ± 0.28	1.606 ± 0.033
277.15 K, m1 = 0.0658	1004.16 ± 0.28	1.607 ± 0.033
277.15 K, m1 = 0.0683	1004.32 ± 0.28	1.609 ± 0.033
277.15 K, m1 = 0.0753	1004.75 ± 0.28	1.615 ± 0.034
277.15 K, m1 = 0.0797	1005.02 ± 0.28	1.619 ± 0.034
277.15 K, m1 = 0.0882	1005.55 ± 0.28	1.625 ± 0.034
277.15 K, m1 = 0.1004	1006.29 ± 0.28	1.629 ± 0.034
279.15 K, m1 = 0.01	1000.56 ± 0.27	1.477 ± 0.031
279.15 K, m1 = 0.0199	1001.18 ± 0.27	1.479 ± 0.031
279.15 K, m1 = 0.0253	1001.51 ± 0.27	1.484 ± 0.031
279.15 K, m1 = 0.0298	1001.8 ± 0.27	1.488 ± 0.031
279.15 K, m1 = 0.0351	1002.13 ± 0.27	1.495 ± 0.031
279.15 K, m1 = 0.0397	1002.42 ± 0.27	1.5 ± 0.031
279.15 K, m1 = 0.0492	1003 ± 0.27	1.499 ± 0.031
279.15 K, m1 = 0.055	1003.36 ± 0.27	1.507 ± 0.031
279.15 K, m1 = 0.0578	1003.53 ± 0.27	1.505 ± 0.031
279.15 K, m1 = 0.0648	1003.96 ± 0.28	1.515 ± 0.031
279.15 K, m1 = 0.069	1004.22 ± 0.28	1.522 ± 0.032
279.15 K, m1 = 0.0798	1004.9 ± 0.28	1.524 ± 0.032
279.15 K, m1 = 0.0897	1005.51 ± 0.28	1.53 ± 0.032
279.15 K, m1 = 0.0996	1006.16 ± 0.28	1.535 ± 0.032

Reference: the NIST ThermoML archive (doi:10.1016/j.jct.2016.12.033)
